The record followed here is ChEMBL document CHEMBL1201862, “PubChem BioAssay data set” (2004).

Assay [1] can be described thus: cells. Format: functional, cell-based.
Assay [2] in a line: cells. Format: functional, cell-based. The source holds these as a separate data set.
The target of a further assay is T1, Coagulation factor XII (Homo sapiens, UniProt P00748).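 Further: activated factor XIIa alpha cleaving a fluorogenic AMC peptide substrate; inhibitor potency from loss of enzyme activity.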
T1 sequence (P00748 whole entry): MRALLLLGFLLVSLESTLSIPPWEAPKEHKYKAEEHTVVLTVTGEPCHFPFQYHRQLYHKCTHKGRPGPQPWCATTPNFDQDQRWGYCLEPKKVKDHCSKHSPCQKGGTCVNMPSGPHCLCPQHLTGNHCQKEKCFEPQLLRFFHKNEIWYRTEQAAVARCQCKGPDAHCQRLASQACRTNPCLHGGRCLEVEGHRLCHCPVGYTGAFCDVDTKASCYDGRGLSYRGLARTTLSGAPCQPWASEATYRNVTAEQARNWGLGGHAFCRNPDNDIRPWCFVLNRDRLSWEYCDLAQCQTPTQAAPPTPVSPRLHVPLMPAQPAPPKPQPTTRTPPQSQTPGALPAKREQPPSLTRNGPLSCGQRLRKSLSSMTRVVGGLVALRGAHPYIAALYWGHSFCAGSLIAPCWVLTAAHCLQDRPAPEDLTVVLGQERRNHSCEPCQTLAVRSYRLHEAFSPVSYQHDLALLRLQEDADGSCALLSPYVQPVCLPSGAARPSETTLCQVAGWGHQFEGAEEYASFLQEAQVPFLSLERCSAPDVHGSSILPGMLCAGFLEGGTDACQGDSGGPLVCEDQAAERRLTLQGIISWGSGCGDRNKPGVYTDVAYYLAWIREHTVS
The format is functional.

The target of assay [3] is T2, Short transient receptor potential channel 4 (Mus musculus, UniProt Q9QUQ5).
T2 sequence (Q9QUQ5 whole entry): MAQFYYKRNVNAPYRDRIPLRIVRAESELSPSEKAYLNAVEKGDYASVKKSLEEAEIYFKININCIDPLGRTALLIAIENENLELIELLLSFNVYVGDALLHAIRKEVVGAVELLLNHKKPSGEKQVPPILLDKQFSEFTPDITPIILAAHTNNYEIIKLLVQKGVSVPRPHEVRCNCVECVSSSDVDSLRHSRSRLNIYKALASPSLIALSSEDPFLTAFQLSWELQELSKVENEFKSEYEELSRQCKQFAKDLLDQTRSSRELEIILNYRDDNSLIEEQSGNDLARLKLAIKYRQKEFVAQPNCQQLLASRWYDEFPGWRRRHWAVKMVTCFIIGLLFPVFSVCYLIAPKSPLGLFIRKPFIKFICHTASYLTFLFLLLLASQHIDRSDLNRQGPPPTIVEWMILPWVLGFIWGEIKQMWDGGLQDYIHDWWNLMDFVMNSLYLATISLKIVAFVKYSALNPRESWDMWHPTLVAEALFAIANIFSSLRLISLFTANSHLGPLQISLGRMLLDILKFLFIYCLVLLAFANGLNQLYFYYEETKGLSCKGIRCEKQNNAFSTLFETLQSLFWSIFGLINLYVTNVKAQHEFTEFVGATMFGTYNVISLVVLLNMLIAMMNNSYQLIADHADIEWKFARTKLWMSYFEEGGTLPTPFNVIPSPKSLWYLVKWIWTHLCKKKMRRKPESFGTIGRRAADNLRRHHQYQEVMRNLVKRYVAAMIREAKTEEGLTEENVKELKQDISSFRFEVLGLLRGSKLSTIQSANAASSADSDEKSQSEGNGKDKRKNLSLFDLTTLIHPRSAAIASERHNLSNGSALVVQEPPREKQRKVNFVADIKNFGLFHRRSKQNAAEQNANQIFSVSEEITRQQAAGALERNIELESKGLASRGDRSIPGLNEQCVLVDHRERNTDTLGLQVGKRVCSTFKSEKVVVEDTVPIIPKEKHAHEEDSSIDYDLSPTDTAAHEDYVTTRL
Description: mouse TRPC4 channel activators, dose response, cell-based, HEK293 TRPC4/mu-opioid, Fluo-4 calcium (AID 434937). Format: functional.

Assay [4] concerns the target T3, Ubiquitin-conjugating enzyme E2 N (Homo sapiens, UniProt P61088).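 Further: Dose-response confirmation in a TR-FRET assay detecting UBC13-driven polyubiquitin chain formation, inhibition measured.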
T3 sequence (P61088 whole entry): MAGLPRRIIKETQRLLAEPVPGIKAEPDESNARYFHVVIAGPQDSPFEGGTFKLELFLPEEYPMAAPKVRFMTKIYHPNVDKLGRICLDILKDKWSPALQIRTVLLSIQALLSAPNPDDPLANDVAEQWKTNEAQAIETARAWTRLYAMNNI
Format: functional.

The nature of assay [5]: off-target signal loss in HeLa-CEM21 co-culture – HeLa F-luc CTL cells, cherry-picked, counter-screen for HIV-1 Env fusion inhibitor project, dose response (AID 652040).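 Further: potency for signal decrease marking cytotoxic or nonspecific inhibition.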 Format: functional, cell-based. Background: A counterscreen serves to expose hits that act by an unwanted route or on another target.
A short description of assay [6]: inhibitors of clade B AD8 Env fusion, dose response, cell-based, cherry-pick (AID 652062).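 Further: luciferase signal from cell-cell fusion driven by HIV-1 clade B AD8 Env; potency is for inhibitors of fusion seen as a drop in luminescence.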 The format is functional.
Assay [7] in a line: Shn3 3'UTR reporter inhibitors, dose response, cell-based, Clone20 osteoblasts, firefly luciferase, cherry-picked (AID 624132).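 Further: firefly luciferase luminescence from reporter carrying the Shn3 3'UTR in osteoblasts.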 The format is functional.
Assay [8] in a line: control 3'UTR Renilla luciferase suppression, dose response, counter-screen for Shn3 inhibitor project, cell-based, Clone20-Shn3RL, cherry-picked (AID 624133). Format: functional.
Assay [9] deals with Heat shock protein HSP 90-alpha (Homo sapiens, UniProt P07900). The format is functional, organism-based.
Assay [10] deals with T4, Rac GTPase-activating protein 1 (Homo sapiens, UniProt Q9H0H5).
T4 sequence (Q9H0H5 whole entry): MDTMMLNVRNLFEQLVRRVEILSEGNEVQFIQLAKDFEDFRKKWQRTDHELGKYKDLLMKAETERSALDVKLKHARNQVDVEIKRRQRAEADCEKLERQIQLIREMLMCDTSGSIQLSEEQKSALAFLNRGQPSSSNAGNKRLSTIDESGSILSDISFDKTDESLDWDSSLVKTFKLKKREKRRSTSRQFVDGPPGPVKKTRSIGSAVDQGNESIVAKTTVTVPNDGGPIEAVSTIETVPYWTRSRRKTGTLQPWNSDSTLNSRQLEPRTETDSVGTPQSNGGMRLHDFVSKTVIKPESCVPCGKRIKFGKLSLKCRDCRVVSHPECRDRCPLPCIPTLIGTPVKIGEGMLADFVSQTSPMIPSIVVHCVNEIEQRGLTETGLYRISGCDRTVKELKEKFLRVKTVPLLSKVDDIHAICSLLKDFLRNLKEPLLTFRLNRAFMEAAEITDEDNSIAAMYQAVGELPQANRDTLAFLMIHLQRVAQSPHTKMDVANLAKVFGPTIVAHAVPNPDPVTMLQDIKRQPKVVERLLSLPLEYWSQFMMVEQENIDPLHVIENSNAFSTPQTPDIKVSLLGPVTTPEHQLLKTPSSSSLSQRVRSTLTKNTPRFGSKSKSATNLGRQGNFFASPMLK
Description: MgcRacGAP GTPase-activating activity inhibitors, confirmation, biochemical, ADP Hunter fluorescence, primary and confirmatory (AID 624330). Format: functional.

For the next assay, the target named is Large T antigen (Simian virus 40, UniProt P03070). The format is functional, Betapolyomavirus macacae.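 Further: Confirmatory-stage PubChem screen for compounds that inhibit SV40 T antigen.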
For assay [11], the target named is T5, Polyadenylate-binding protein 1 (Homo sapiens, UniProt P11940). Description: PABP1 MLLE–PAM2 interaction inhibitors, dose response, miRNA deadenylation inhibitor project, biochemical, fluorescence polarization, Cy5-PAM2 peptide, secondary (AID 602260). The format is functional. The note with it: read-out: IC50_Mean. Background: In fluorescence polarisation assays a small probe gives low polarisation when free and higher when bound to something large.

The target in assay [12] is T5, Polyadenylate-binding protein 1. Description: PABP1 MLLE–PAM2 binding inhibitor potency, dose response, biochemical, fluorescence polarization, FITC-PAM2 peptide (AID 602259). The format is functional. Conditions: read-out: IC50_Mean.
The target in assay [13] is T6, Heat shock factor protein 1 (Mus musculus, UniProt P38532).
T6 sequence (P38532 whole entry): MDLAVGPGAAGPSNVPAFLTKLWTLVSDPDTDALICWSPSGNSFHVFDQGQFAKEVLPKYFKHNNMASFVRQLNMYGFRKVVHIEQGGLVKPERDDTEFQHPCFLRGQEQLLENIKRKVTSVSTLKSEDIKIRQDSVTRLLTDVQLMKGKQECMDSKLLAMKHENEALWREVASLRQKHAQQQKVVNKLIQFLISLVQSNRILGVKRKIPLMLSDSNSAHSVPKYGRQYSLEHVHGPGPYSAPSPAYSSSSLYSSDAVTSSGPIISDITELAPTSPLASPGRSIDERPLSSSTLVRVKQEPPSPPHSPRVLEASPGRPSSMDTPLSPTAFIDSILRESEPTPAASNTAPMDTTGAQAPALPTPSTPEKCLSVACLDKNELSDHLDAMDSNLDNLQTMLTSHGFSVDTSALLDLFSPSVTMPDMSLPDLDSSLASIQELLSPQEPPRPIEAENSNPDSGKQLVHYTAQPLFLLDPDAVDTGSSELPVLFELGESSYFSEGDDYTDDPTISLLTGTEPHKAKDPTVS
Description: HSF1 potentiators in luciferase reporter cells, confirmation, cell-based, NIH3T3, luminescence, dose retest (AID 435004).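 Further: stress induced by proteasome inhibitor MG132 added 30 min after compound; luciferase reporter driven by HSF1 response element in NIH3T3 cells; actives raise luminescence as potentiators of the MG132 stress response.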 The format is functional. For orientation: In a reporter assay the amount or activity of a reporter protein is the signal.

Calls of active or inactive are those of the source.

T5 sequence (P11940 whole entry): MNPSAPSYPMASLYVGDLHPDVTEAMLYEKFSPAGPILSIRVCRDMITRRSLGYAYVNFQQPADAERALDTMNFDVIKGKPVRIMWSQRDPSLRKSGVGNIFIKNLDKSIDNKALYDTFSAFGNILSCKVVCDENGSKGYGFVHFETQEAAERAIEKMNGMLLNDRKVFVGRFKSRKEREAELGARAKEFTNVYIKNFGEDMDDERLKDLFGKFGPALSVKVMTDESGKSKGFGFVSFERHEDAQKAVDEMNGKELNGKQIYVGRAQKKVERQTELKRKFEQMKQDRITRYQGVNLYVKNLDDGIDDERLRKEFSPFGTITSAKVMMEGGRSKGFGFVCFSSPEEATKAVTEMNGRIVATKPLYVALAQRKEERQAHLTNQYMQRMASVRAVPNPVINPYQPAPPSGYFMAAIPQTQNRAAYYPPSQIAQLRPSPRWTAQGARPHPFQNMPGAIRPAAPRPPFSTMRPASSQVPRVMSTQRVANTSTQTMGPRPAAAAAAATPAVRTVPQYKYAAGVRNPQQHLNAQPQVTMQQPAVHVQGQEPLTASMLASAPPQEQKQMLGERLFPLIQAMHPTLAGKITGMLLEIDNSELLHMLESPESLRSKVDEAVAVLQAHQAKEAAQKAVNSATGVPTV
Large T antigen, sequence (P03070 whole entry): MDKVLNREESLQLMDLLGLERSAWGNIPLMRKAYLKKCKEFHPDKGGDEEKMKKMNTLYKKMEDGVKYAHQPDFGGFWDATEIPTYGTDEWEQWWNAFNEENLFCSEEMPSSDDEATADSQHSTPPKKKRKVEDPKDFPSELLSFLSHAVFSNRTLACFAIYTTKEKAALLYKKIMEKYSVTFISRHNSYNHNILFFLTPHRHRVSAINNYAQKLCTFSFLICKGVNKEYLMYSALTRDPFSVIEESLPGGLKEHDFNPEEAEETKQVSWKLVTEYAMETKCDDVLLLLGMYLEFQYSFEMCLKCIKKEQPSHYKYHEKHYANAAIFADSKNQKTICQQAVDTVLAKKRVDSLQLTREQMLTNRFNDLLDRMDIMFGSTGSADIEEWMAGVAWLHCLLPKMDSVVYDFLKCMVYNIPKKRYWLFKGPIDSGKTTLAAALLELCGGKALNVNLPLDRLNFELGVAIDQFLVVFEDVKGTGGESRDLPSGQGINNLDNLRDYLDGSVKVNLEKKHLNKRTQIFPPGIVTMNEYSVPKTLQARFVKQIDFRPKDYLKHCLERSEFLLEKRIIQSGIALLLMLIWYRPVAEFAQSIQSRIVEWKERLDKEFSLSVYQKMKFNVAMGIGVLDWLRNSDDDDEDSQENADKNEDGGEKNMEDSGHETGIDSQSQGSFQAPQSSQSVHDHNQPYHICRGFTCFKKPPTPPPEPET

Usually EC50 stands for the concentration that produces a half-maximal response. In the case of `COCCNC(=O)C(=O)NCC1OCCN1S(=O)(=O)c1cc(F)ccc1F` (stereo not drawn), the concentration giving a half-maximal response (EC50) in “cells [1]” and in the assay “cells [2]” was > 350 µM (not active) in each case.

For the compound `CCC(CO)n1c(SCc2cc(=O)oc3cc(C)ccc23)nc2ccccc2c1=O` (stereo not drawn), the IC50 on Coagulation factor XII is > 50 µM (inactive).

Consider `Cc1sc(NC(=O)CSc2nnnn2C2CCCC2)c(C#N)c1C`, for which the IC50 on Coagulation factor XII is > 50 µM (inactive).

For `CCOC(=O)C1(Cc2cccc(F)c2)CCN(Cc2cnn(CC)c2)CC1`, the EC50 in assay [3] is 0.668 µM (active). Take `COC(C[C@H](O)C[C@@H](O)[C@H](C)OCc1ccccc1)OC`: at Coagulation factor XII, the IC50 is > 50 µM (inactive). The same measure, in the same setting: the value for `Cc1ccc(OCC(=O)Nc2nnn(C)n2)c(C)c1` was > 50 µM (inactive).

Regarding `Cc1ccc(C2(C)NC(=O)N(CC(=O)Nc3ccccc3N3CCCC3)C2=O)cc1` (stereo not drawn), the EC50 in the assay “cells [1]” and in the assay “cells [2]” was > 350 µM (not active) each time.

With `c1ccc(C[C@H]2CNCCN2CCC23CC4CC(CC(C4)C2)C3)cc1`, in [4], the IC50 is > 20 µM (inactive). For `COc1cccc(-c2nnc3n2N=C(c2cc(OC)ccc2OC)CS3)c1`, in assay [4], the IC50 is > 20 µM (inactive). Take `C#CCOCCOCCOCCNc1nc(N2CCN(C(=O)[C@H](CCCN=C(N)N)n3cc(C(N)[C@@H](C)CC)nn3)CC2)nc(N2CCN(C(=O)[C@H](CC(N)=O)n3cc([C@@H](N)CC(N)=O)nn3)CC2)n1` (stereo partly drawn): the IC50 in assay [4] is > 20 µM (inactive).

Turning to `O=C(CCC(=O)N/N=C/c1ccc(Br)s1)NCc1ccccc1`, the IC50 on Coagulation factor XII was > 50 µM (inactive). By AC50 is commonly meant the concentration at which the activity in the assay is half-maximal. As to `Cc1cccc(C)c1NC(=O)CCCSc1nnc(-c2ccc(Cl)cc2)n1-c1ccccc1`, the AC50 was 48.8 µM (active) in assay [5] and 10.5 µM (active) in assay [6].

On to `CC(C)CCC(C(=O)O)C(C)CC(=O)NNC(=O)c1ccco1` (stereo not drawn), for which the AC50 is > 70 µM (inactive) in assay [7] and 19.9 µM (active) in [8]. With `CC(C)N(Cc1ccccc1)C(S)=NC1CCCCC1`, the IC50 at Coagulation factor XII was > 50 µM (inactive). As to `O=C(CSc1nc2ccsc2c(=O)n1Cc1ccc(C(=O)O)cc1)NCc1ccco1`, the IC50 in assay [4] was > 20 µM (inactive).

As for `COc1ccc(C(=O)O/N=C2\C(=O)N(C)c3ccccc32)cc1`, the AC50 in assay [9] was 1.1 µM (active).

With `CCOC(=O)c1[nH]c2ccccc2c1N=C(S)Nc1cccc(C)c1C`, the IC50 is 95.4 µM (active) in assay [10], 35.1 µM (active) at Large T antigen, > 66 µM (inactive) in [11] and > 66 µM (inactive) in [12]. With `Cc1ccc2oc(NC(=O)N3CCOCC3)cc(=O)c2c1`, the IC50 on Coagulation factor XII is > 50 µM (inactive). `O=c1c(Cc2ccccc2)c(O)ccn1CCc1c[nH]cn1`: in assay [3], the EC50 is 3.76 µM (active). Regarding `O=C1CC(Nc2ccccc2)C(=O)N1Cc1ccccc1` (stereo not drawn), the EC50 in the assay “cells [1]” and in the assay “cells [2]” was > 350 µM (not active) throughout.

In the case of `Cc1ccc(-n2cc(CNC(C)Cc3cnccn3)c(-c3cccc(C)c3)n2)cc1` (stereo not drawn), in assay [3], the EC50 was 5.96 µM (active). Consider `CC1CN(S(=O)(=O)c2cccc(C(=O)N(CCc3ccccc3)Cc3ccccc3)c2)CC(C)O1` (stereo not drawn), for which the EC50 in “cells [1]” and in “cells [2]” was > 350 µM (not active) in each case. Regarding `CC1CN(c2ccc([N+](=O)[O-])c3cccnc23)CC(C)N1` (stereo not drawn), the EC50 in [3] is 0.335 µM (active). In the case of `CCOC(=O)c1cccc(NC(=O)CSc2nnc(-c3ccoc3C)n2CCOC)c1`, the IC50 on Coagulation factor XII was > 50 µM (inactive).

On to `COCc1cc(O)nc(SCCS(=O)(=O)c2ccc(Cl)cc2Cl)n1`, for which the IC50 in [11] and in assay [12] was > 66 µM (inactive) each time. For the same compound, the EC50 in assay [13] was > 260 µM (inactive).

As to `O=C(CCCCCN1C(=O)c2cccc3cccc(c23)C1=O)NC1CCS(=O)(=O)C1` (stereo not drawn), the IC50 in [4] was > 20 µM (inactive). On to `CCN1CCN(c2ccc(S(=O)(=O)N3CCOCC3)cc2NC(=O)c2ccccc2OC(F)F)CC1`, for which the EC50 in assay [3] was 0.299 µM (active). Still for that read-out and setting: the value for `O=C(C1CCCN(Cc2ccncc2)C1)N1CCc2ccccc2C1` (stereo not drawn) was 0.188 µM (active).

On to `Nc1ncnc2c1ncn2CCN1CCOCC1`, for which the concentration for a half-maximal effect (EC50) in the assay “cells [1]” and in “cells [2]” was > 350 µM (not active) throughout. With `CC12CC3(C)CC(C)(C1)CC(C(=O)NCCc1ccc(S(N)(=O)=O)cc1)(C2)C3`, the EC50 in the assay “cells [1]” and in “cells [2]” was > 350 µM (not active) each time.
